Results: patent US5576208A, “Antisense oligonucleotide inhibition of the RAS gene” (priority 1994, dated 1996)
“Also recorded” adds a separate entry of the source.

Key:
[1] = test system: 25-base oligoribonucleotide of activated H-ras mRNA, mammalian RNase H; test: RNase H cleavage in vitro with HeLa nuclear extracts; type: biochemical, human; settings: HeLa nuclear extracts as source of RNase H
Method: RNase H assays were performed using a chemically synthesized 25-base oligoribonucleotide corresponding to bases +23 to +47 of activated (codon 12, G→U) H-ras mRNA. The 5' end-labeled RNA was used at a concentration of 20 nM and incubated with a 10-fold molar excess of antisense oligonucleotide in a reaction containing 20 mM tris-Cl, pH 7.5, 100 mM KCl, 10 mM MgCl2, 1 mM dithiothreitol, 10 μg tRNA and 4 U RNasin in a final volume of 10 μl. The reaction components were preannealed at 37° C. for 15 Minutes then allowed to cool slowly to room temperature. HeLa cell nuclear extracts were used as a source of mammalian RNase H. Reactions were initiated by addition of 2 μg of nuclear extract (5 μl) and reactions were allowed to proceed for 10 Minutes at 37° C. Reactions were stopped by phenol/chloroform extraction and RNA components were precipitated with ethanol. Equal CPMs were loaded on a 20% polyacrylamide gel containing 7M urea and RNA cleavage products were resolved and visualized by electrophoresis followed by autoradiography. Quantitation of cleavage products was performed using a Molecular Dynamics Densitometer.

[2] = test system: 47-mer H-ras RNA hairpin target; test: Gel shift assay
Method: The structured ras target transcript, a 47-nucleotide hairpin containing the mutated codon 12, was prepared and mapped as described in Lima et al., Biochemistry 1991, 31, 12055-12061. Hybridization reactions were prepared in 20 μl containing 100 mM sodium, 10 mM phosphate, 0.1 mM EDTA, 100 CPM of T7-generated RNA (approximately 10 pM), and antisense oligonucleotide ranging in concentration from 1 pM to 10 μM. Reactions were incubated 24 hours at 37° C. Following hybridization, loading buffer was added to the reactions and reaction products were resolved on 20% native polyacrylamide gels, prepared using 45 mM tris-borate and 1 mM MgCl2 (TBM). Electrophoresis was carried out at 10° C. and gels were quantitated using a Molecular Dynamics Phosphorimager.

[3] = test system: 25-mer oligoribonucleotide complement (H-ras codon 12 RNA target); test: Melting curves, hybridization to 25-mer RNA target; type: binding, human
Method: Absorbance vs temperature curves were measured at 260 nm using a Gilford 260 spectrophotometer interfaced to an IBM PC computer and a Gilford Response II spectrophotometer. The buffer contained 100 mM Na^+, 10 mM phosphate and 0.1 mM EDTA, pH 7. Oligonucleotide concentration was 4 μM each strand determined from the absorbance at 85° C. and extinction coefficients calculated according to Puglisi and Tinoco, Methods in Enzymol. 1989, 180, 304-325. Tm values, free energies of duplex formation and association constants were obtained from fits of data to a two state model with linear sloping baselines. Petersheim, M. and Turner, D.H., Biochemistry 1983, 22, 256-263. Reported parameters are averages of at least three experiments. For some oligonucleotides, free energies of duplex formation were also obtained from plots of Tm^-1 vs log10 (concentration). Borer, P.N., Dengler, B., Tinoco, I., Jr., and Uhlenbeck, O.C., J. Mol. Biol., 1974, 86, 843-853.

[4] = test system: ras mRNA in T24 cells (activated codon 12); test: Northern blot analysis of ras expression in T24 cells; type: cell-based, human; set-up: inhibition of ras mRNA: concentration or dose not given beside the values
Method: The human urinary bladder cancer cell line T24 was obtained from the American Type Culture Collection (Rockville Md.). Cells were grown in McCoy's 5 A medium with L-glutamine (Gibco BRL, Gaithersburg Md.), supplemented with 10% heat-inactivated fetal calf serum and 50 U/ml each of penicillin and streptomycin. Cells were seeded on 100 Mm plates. When they reached 70% confluency, they were treated with oligonucleotide. Plates were washed with 10 ml prewarmed PBS and 5 ml of Opti-MEM reduced-serum medium containing 2.5 μl DOTMA. Oligonucleotide was then added to the desired concentration. After 4 hours of treatment, the medium was replaced with McCoy's medium. Cells were harvested 48 hours after oligonucleotide treatment and RNA was isolated using a standard CsCl purification method.
(§1) Northern hybridization: 10 μg of each RNA was electrophoresed on a 1.2% agarose/formaldehyde gel and transferred overnight to GeneBind 45 nylon membrane (Pharmacia LKB, Piscataway, N.J.) using standard methods. […] RNA was UV-crosslinked to the membrane. Double-stranded ^32 P-labeled probes were synthesized using the Prime a Gene labeling kit (Promega, Madison Wis.). The ras probe was a SalI-NheI fragment of a cDNA clone of the activated (mutant) H-ras mRNA having a GGC-to-GTC mutation at codon-12. The control probe was G3PDH. Blots were prehybridized for 15 Minutes at 68° C. with the QuickHyb hybridization solution (Stratagene, La Jolla, Calif.). The heat-denatured radioactive probe (2.5×10^6 counts/2 ml hybridization solution) mixed with 100 μl of 10 Mg/ml salmon sperm DNA was added and the membrane was hybridized for 1 hour at 68° C. The blots were washed twice for 15 minutes at room temperature in 2× SSC/0.1% SDS and once for 30 minutes at 60° C. with 0.1XSSC/0.1%SDS. Blots were autoradiographed and the intensity of signal was quantitated using an ImageQuant PhosphorImager (Molecular Dynamics, Sunnyvale, Calif.). Northern blots were first hybridized with the ras probe, then stripped by boiling for 15 Minutes in 0.1× SSC/0.1%SDS and rehybridized with the control G3PDH probe to check for correct sample loading.

[5] = test system: ras mRNA in HeLa cells (wild-type H-ras codon 12); test: Northern blot analysis of ras expression in HeLa cells; type: cell-based, human
Method: HeLa cells were maintained as monolayers on 6-well plates in Dulbecco's Modified Eagle's medium (DMEM) supplemented with 10% fetal bovine serum and 100 U/ml penicillin. Treatment with oligonucleotide and isolation of RNA were essentially as described above for T24 cells.
as §1, with “Northern blots were first hybridized with the ras probe, then stripped by boiling for 15 Minutes in 0.1× SSC/0.1%SDS and rehybridized with the control G3PDH probe to check for correct sample loading.” left out

T24 cancer cells = test: Inhibition of proliferation of cancer cells; type: cell-based, human
Method: Cells were seeded on 60 mm plates and were treated with oligonucleotide in the presence of DOTMA when they reached 70% confluency. Time course experiment: On day 1, cells were treated with a single dose of oligonucleotide at a final concentration of 100nM. The growth medium was changed once on day 3 and cells were counted every day for 5 days, using a counting chamber.

[6] = HeLa cell extract, 37° C.
Method: Oligonucleotides were incubated in crude HeLa cellular extracts at 37° C. to determine their sensitivity to nuclease degradation as described in Dignam et al., Nucleic Acids Res. 1983, 11, 1475-1489.

[7] = test system: full length H-ras mRNA (activated, codon 12); test: ras transactivation reporter gene system; settings: Table 5, antisense activity against H-ras; listed as Deoxy
[8] = test system: mutant (activated, codon 12) H-ras RNA, ras-luciferase fusion reporter in HeLa cells; test: ras-luciferase reporter gene assay, mutant form
[9] = test system: normal (wild type) H-ras RNA, ras-luciferase fusion reporter in HeLa cells; test: ras-luciferase reporter gene assay, normal form; settings: read-out: IC50, inhibition of ras-luciferase activity; normal (unmutated) ras-luciferase, dose-response

CCACACCGACGGCGCCC (chemistry not given here) [compound 4122]
ability to direct RNase H cleavage [1]: no cleavage was observed | binding to the hairpin target ([2]; listed as full 2'--O--methyl 17-mer): formed the most stable duplex

CCACACCGACGGCGCCC [2570] (phosphorothioate, further chemistry not given here) [compound 2570]
Tm ([3]; Table 5, 2'-modified 17-mer with 7-deoxy gap, 25-mer oligoribonucleotide complement): 64.2 °C | ΔΔG°37 ([3]; free energy difference between hybridization to mutant target and to wild type target): +1.8 kcal/mole | inhibition of ras expression [4]: inhibited ras expression in T24 cells; also recorded: decreased ras mRNA levels in T24 cells | inhibition of ras mRNA [4]: 82% | inhibition of ras expression [5]: did not inhibit ras expression in HeLa cells | inhibition of T24 cell proliferation relative to HeLa cells (T24 cancer cells; 100 nM oligonucleotide concentration): four times as severe | inhibition of cell proliferation (T24 cancer cells; T24 cells): 61% | IC50 (T24 cancer cells; T24 cells, dose-response, counted 3 days later, read-out: IC50, cell proliferation): 0.098 µM | degradation [6]: no degradation after 5 hours | binding to the hairpin target ([2]; listed as full deoxy 17-mer): formed the least stable duplex | IC50 [7]: 0.15 µM | selectivity for inhibition of mutant ras-luciferase relative to wild type ([8]; 100 nM oligonucleotide): approximately 4 fold | selectivity toward the mutant form of ras-luciferase as compared to the normal form ([8]; at low concentrations): approximately threefold | selectivity, mutant over wild type ([8]; dose-dependent experiment, FIG. 8): 5 fold | IC50 ([8]; read-out: IC50, inhibition of ras-luciferase activity, mutant ras-luciferase, dose-response): ~0.1 µM | selectivity toward the mutated form of ras-luciferase ([8]; single dose 0.5 μM): displayed selectivity toward the mutated form of ras-luciferase | IC50 [9]: ~0.25 µM
